In ChEMBL document CHEMBL4312034, “Virtual screening-driven discovery of dual 5-HT6/5-HT2A receptor ligands with pro-cognitive properties” (Eur J Med Chem, 2020):

Columns and labels:
[1] = target: 5-hydroxytryptamine receptor 2A (Homo sapiens, UniProt P28223); assay: Binding affinity to human 5-HT2AR expressed in HEK293 cells by competitive binding assay; format: cell-based
D(2) dopamine receptor = D(2) dopamine receptor (Homo sapiens, UniProt P14416); assay: Displacement of [3H]-raclopride from human D2R expressed in HEK293 cells after 1 hr by microbeta plate reader analysis; format: cell-based
[2] = target: T1, 5-hydroxytryptamine receptor 6 (Homo sapiens, UniProt P50406); assay: Displacement of [3H]-LSD from human 5-HT6R expressed in HEK293 cells after 1 hr by microbeta plate reader analysis; format: cell-based
[3] = target: T2, 5-hydroxytryptamine receptor 1A (Homo sapiens, UniProt P08908); assay: Displacement of [3H]-8-OH-DPAT from human 5-HT1A receptor expressed in HEK293 cells after 1 hr by microbeta plate reader analysis; format: cell-based
T2 sequence (P08908 whole entry): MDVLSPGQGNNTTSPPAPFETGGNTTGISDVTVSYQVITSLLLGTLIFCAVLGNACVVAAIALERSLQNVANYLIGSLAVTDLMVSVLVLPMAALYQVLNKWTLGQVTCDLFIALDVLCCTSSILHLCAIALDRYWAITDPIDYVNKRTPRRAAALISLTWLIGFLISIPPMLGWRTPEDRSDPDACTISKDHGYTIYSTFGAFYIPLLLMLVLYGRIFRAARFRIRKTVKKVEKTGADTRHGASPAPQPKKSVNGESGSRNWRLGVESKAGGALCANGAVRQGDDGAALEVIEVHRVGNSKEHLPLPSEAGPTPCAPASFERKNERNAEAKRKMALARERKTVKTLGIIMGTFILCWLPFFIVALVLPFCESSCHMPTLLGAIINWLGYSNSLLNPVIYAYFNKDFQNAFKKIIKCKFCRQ

[4] = target: 5-hydroxytryptamine receptor 7 (Homo sapiens, UniProt P34969); assay: Displacement of [3H]-CT from human 5-HT7 receptor expressed in HEK293 cells after 1 hr by microbeta plate reader analysis; format: cell-based
[5] = target: T1, 5-hydroxytryptamine receptor 6; assay: Binding affinity to 5-HT6R (unknown origin) assessed as inhibitory constant
[6] = Half life in rat liver microsomes up to 60 mins by HPLC-LC/MS analysis; conditions: liver microsomes
in vitro = conditions: rat, liver microsomes

Chain of 5-hydroxytryptamine receptor 7 (P34969 whole entry): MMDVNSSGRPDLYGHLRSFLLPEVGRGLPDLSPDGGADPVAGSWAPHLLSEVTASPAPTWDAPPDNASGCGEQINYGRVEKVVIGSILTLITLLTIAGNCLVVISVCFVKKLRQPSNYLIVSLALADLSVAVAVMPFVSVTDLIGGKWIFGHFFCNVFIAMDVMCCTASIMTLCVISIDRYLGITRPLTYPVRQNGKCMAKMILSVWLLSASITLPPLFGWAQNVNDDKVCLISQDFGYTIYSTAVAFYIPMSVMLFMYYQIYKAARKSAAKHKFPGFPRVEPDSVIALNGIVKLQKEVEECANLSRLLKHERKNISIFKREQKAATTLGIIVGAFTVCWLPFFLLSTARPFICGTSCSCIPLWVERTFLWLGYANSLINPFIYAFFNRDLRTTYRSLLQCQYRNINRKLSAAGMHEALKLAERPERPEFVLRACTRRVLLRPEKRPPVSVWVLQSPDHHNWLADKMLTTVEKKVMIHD
T1 sequence (P50406 whole entry): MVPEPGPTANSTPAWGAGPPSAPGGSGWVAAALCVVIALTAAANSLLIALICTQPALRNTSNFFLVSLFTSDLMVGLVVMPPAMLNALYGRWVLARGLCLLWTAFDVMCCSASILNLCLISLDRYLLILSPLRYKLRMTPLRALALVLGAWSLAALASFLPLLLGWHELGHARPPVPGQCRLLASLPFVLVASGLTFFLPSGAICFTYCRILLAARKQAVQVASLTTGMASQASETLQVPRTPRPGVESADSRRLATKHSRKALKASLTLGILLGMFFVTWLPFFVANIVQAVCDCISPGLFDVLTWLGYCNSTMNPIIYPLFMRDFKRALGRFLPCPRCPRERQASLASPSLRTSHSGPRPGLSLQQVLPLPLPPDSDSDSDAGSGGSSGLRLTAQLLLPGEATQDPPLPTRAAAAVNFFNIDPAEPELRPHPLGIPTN
Chain of D(2) dopamine receptor (P14416 whole entry): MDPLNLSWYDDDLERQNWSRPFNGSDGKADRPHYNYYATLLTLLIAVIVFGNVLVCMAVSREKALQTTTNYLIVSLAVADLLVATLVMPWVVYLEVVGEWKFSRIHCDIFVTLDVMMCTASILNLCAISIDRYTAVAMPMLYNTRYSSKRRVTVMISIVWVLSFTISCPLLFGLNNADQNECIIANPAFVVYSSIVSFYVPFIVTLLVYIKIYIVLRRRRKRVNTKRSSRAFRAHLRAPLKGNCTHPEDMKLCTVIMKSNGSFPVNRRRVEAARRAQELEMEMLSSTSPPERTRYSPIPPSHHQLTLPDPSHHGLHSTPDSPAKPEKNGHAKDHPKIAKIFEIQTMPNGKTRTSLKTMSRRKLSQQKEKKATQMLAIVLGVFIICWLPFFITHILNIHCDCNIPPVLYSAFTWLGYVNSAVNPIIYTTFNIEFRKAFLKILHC
Chain of 5-hydroxytryptamine receptor 2A (P28223 whole entry): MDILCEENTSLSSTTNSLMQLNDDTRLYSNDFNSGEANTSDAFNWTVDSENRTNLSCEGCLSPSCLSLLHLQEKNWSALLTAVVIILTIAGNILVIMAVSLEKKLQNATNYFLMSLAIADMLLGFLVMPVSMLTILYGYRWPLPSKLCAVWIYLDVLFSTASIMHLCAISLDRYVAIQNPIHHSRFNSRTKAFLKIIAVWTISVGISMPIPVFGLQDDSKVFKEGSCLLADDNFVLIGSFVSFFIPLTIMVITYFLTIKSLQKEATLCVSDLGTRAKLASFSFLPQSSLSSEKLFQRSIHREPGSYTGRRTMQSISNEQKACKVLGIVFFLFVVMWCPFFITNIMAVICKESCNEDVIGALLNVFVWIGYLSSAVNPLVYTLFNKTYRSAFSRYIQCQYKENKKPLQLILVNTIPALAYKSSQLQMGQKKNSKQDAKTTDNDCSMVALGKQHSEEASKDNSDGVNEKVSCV

Ki [1] | Ki [2] | Ki [3] | Ki [4] | Compound | further results
35 nM | 90 nM | 334 nM | 3300 nM | COc1ccc(-c2ccc(CNCCc3c[nH]c4ccc(OC)cc34)o2)cc1 | Ki (D(2) dopamine receptor): 1360 nM
– | – | – | – | N=C(NC1=NC2CCCCC2C(=O)N1)N1CCC(Cc2ccccc2)CC1 (stereo unspecified) | Ki [5]: 21 nM
– | 334 nM | – | – | CCCN(CCc1c[nH]c2ccccc12)Cc1ccc(-c2ccccc2)o1 | –
– | 132 nM | – | – | COc1cccc2[nH]cc(CCNCc3ccc(-c4ccc(F)cc4)o3)c12 | –
33 nM | 60 nM | 431 nM | – | Oc1ccc(-c2ccc(CNCCc3c[nH]c4ccc(Cl)cc34)o2)cc1 | –
– | – | – | – | Oc1c(CN2CCCC2)cc(CSc2ccccc2)c2cccnc12 | Ki [5]: 894 nM
28 nM | 121 nM | 146 nM | 1500 nM | COc1ccc2[nH]cc(CCNCc3ccc(-c4cn[nH]c4)o3)c2c1 | Ki (D(2) dopamine receptor): 1730 nM
– | – | – | – | CC1=CC=CN2C(=O)C3C=C(S(=O)(=O)c4ccccc4)C(=N)N(Cc4ccc(F)cc4)C3N=C12 (stereo unspecified) | Ki [5]: 594 nM
– | 418 nM | – | – | c1ccc2c(-c3ccc(CNCCc4c[nH]c5ccccc45)s3)cccc2c1 | –
– | 185 nM | – | – | Clc1cccc(-c2ccc(CNCCc3c[nH]c4ccccc34)o2)c1 | –
96 nM | 2 nM | 202 nM | 2730 nM | Oc1ccc(-c2ccc(CNCCc3c[nH]c4cc(F)ccc34)o2)cc1 | Ki (D(2) dopamine receptor): 446 nM
– | 1700 nM | – | – | COc1ccc2occ(CCNCc3ccc(-c4ccc(O)cc4)o3)c2c1 | –
– | – | – | – | CC(CSc1nc2ccccc2c(=O)n1-c1ccc(Cl)cc1)N(C)C (stereo unspecified) | Ki [5]: 20 nM
– | 522 nM | – | – | Oc1ccc(-c2ccc(CNCCc3coc4ccc(F)cc34)o2)cc1 | –
199 nM | 61 nM | 775 nM | 525 nM | CN(CCc1c[nH]c2ccccc12)Cc1ccc(-c2ccccc2)o1 | Ki (D(2) dopamine receptor): 368 nM
– | 109 nM | – | – | COc1cccc2[nH]cc(CCNCc3ccc(-c4ccccc4)o3)c12 | –
29 nM | 55 nM | 64 nM | 3150 nM | COc1ccc2[nH]cc(CCNCc3ccc(-c4cccc(O)c4)o3)c2c1 | Ki (D(2) dopamine receptor): 391 nM
175 nM | 7 nM | 292 nM | 1620 nM | Oc1ccc(-c2ccc(CNCCc3c[nH]c4ccccc34)o2)cc1 | half-life at 1 h [6]: 6 min; microsomal CLint at 1 h (in vitro): 222 µL/min/mg; Ki (D(2) dopamine receptor): 757 nM
216 nM | 76 nM | 91 nM | 871 nM | COc1cccc(-c2ccc(CNCCc3c[nH]c4ccc(OC)cc34)o2)c1 | –
– | – | – | – | CN1CCN(c2ccnc(SCc3ccccc3Cl)n2)CC1 | Ki [5]: 8880 nM
607 nM | 67 nM | 218 nM | 2170 nM | COc1ccc2[nH]cc(CCNCc3ccc(-c4ccc(Cl)cc4)o3)c2c1 | Ki (D(2) dopamine receptor): 571 nM
– | – | – | – | CN1C=C2C(NC(=S)NC2c2ccc(F)cc2)/C(=C\c2ccc(F)cc2)C1 (stereo unspecified) | Ki [5]: 596 nM
– | – | – | – | CN1CCN(c2nc(NCc3ccccc3)c3c(n2)N(C)NC3)CC1 | Ki [5]: 7 nM
– | 247 nM | – | – | COc1cccc(-c2ccc(CNCCc3c[nH]c4cccc(OC)c34)o2)c1 | –
– | 210 nM | – | – | COc1ccc2[nH]cc(CCNCc3ccc(-c4cc(Cl)cc(Cl)c4)o3)c2c1 | –
22 nM | 5 nM | 399 nM | 51 nM | Cc1ccc2[nH]cc(CCNCc3ccc(-c4ccc(O)cc4)o3)c2c1 | –
– | 1460 nM | – | – | CC(=O)Oc1ccc(-c2ccc(CNCCc3c[nH]c4ccccc34)o2)cc1 | –

Compound | Ki [1] | Ki [2] | Ki [3] | Ki [4] | further results
COc1ccc2[nH]cc(CC(C)NCc3ccc(-c4ccc(O)cc4)o3)c2c1 (stereo unspecified) | – | 345 nM | – | – | –
